In experiment [1] the test system is genotype A, "Long" strain RSV. The experiment is described as follows: RSV-A assay (CPE protection in Hep-2 cells, ATPlite readout). Conditions: human respiratory syncytial virus, MOI 0.1, CPE protection. It is filed as cell-based, Human respiratory syncytial virus (HRSV). In a few lines: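 Hep-2, 8,000 cells/well, MOI 0.1 (PFU- or TCID50-based); 2-fold compound series, duplicates; 5 d incubation; ATPlite luminescence readout; EC50.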

Experiment [2] concerns HMPV clinical isolate TN/1501/A1. The experiment is described as follows: HMPV antiviral assay Method-B (clinical isolate TN/1501/A1 in LLC-MK2 cells, ATP-Lite readout). It is filed as cell-based, Human metapneumovirus (HMPV). Conditions: human metapneumovirus, LLC-MK2, 144 h, hMPV WT1501 (clinical isolate TN/1501/A1), 6 days. The procedure: In vitro HMPV antiviral activity was evaluated using the clinical isolate TN/1501/A1 and LLC-MK2 cells (ATCC #CCL-7), an immortalized kidney epithelial cell line from Macaca mulatta. Compounds were resuspended in dimethyl sulfoxide (DMSO) at 10 mM and added to a 384-well source plate. The compounds were diluted and transferred onto 384-well assay plates using the Echo-650 automated liquid handling system (Beckman Coulter, Indiana). The test compounds were assessed in duplicate at a top concentration of 10 μM followed by 3-fold serial dilutions to give a total of 10 concentration points. DMSO control wells were also included on the assay plates and were either infected or not, acting as positive and negative controls. TN/1501/A1 virus infections were performed in-suspension with LLC-MK2 cells. The cells were washed twice with PBS and removed from the cell-culture flask with 0.25% trypsin-EDTA (Thermo Fisher Scientific, MA). The trypsin-EDTA was inactivated by resuspending in 2% fetal bovine serum (FBS) and OptiMEM (ThermoFisher Scientific, MA) containing 1% penicillin-streptomycin. Cells were pelleted by centrifuging for 5 minutes at 800 rpm, the supernatant was removed, and cells were suspended in PBS plus 100 μg/mL CaCl2). This step was performed twice. Cells were then resuspended in serum-free (SF)-OptiMEM containing 4 μg/mL TPCK-Trypsin (Sigma Aldrich, MO), 1% penicillin-streptomycin (ThermoFisher Scientific, MA) and 100 μg/mL CaCl2). Cells were counted and seeded at a density of 5,000 cells/well, 12.5 μL/well. Virus infections were done at a multiplicity of infection (MOI) of 0.014 with 12.5 μL added per well. SF-OptiMEM, 12.5 μL/well, was added to the appropriate wells to serve as a virus-free negative control for the assay. The final concentration of TPCK-trypsin was 2 μg/mL. Plates were incubated at 37° C., 5% CO2 for 6 days. After 6 days incubation, 12.5 μL of ATP-Lite (PerkinElmer, MA) was added to each well and the raw luminescence values were determined using the Envision 2104 (Perkin Elmer, MA). The average of the raw luminescence values for the cells and virus only positive control wells was subtracted from all conditions tested and the percent cell health was determined by dividing these values by the average of the cells only negative control wells. EC50 values were then calculated by non-linear regression using a four-parameter curve logistic equation. The curve fit model employed was XLFit Dose Response One Site Model 200: y=(A+(B/(1+((x/C)^D)))), where A is the minimum y value, B is the maximum y value, C is the log EC50 value, and D is the slope factor. […] EC50 ranges are as follows: A<0.5 μM; B>0.5 μM.

The mark [3] stands for this setting: genotype A “Long” strain RSV, read-out: Human RSV-A (“Long”).
Setting [4] is: RSV-A Long strain, read-out: Human RSV-A (“Long”) EC50.

Like-named read-outs stand apart in the source and are kept apart here.

As for `C[C@]1(C(N)=O)COc2c1cc([C@@](O)(CNC(=O)c1cc(OC3CC3)n3nc(C4CC4)cc3c1)C(F)(F)F)nc2-c1csc2c(F)cccc12` [Example 597], the EC50 in experiment [1] (setting [3]) was less than 200 nM; in experiment [2], more than 500 nM.

Take `COc1cc(-c2nc([C@@](O)(CNC(=O)c3cc(OC)c4nn(C5CC5)cc4c3)C(F)(F)F)cc3c2OC[C@]3(C)C(N)=O)ccc1F` [Example 914]: the EC50 is less than 200 nM in experiment [1] (setting [4]) and more than 500 nM in experiment [2].

As for `COc1cc(C(=O)NC[C@](O)(c2cc3c(c(-c4cc(F)c(Cl)cc4F)n2)OC[C@]3(C)C(N)=O)C2CC2)cc2cc(Cl)c(C)nc12` [Example 1182], the values for the EC50 in experiment [1] (setting [4]) and in experiment [2] were less than 200 nM and less than 500 nM, respectively.

Turning to `COc1cc(C(=O)NC[C@](O)(c2cc3c(c(-c4ccc(F)cc4)n2)OC[C@@]3(C(N)=O)C(F)F)C2CC2)cc2cn(C3CC3)nc12` [Example 1023], the EC50 was less than 200 nM in experiment [1] (setting [4]) and less than 500 nM in experiment [2].

As to `C[C@]1(C(N)=O)COc2c1cc([C@@](O)(CNC(=O)c1cc(Cl)c3nn(C4CC4)cc3c1)C1CC1)nc2-c1c(F)cc(Cl)cc1F` [Example 1158], the results for the EC50 in experiment [1] (setting [4]) and in experiment [2] were less than 200 nM and less than 500 nM, respectively.

As for `COc1cc(C(=O)NC[C@](O)(c2cc3c(c(-c4ccc(F)c(F)c4Cl)n2)OC[C@]3(C)C(N)=O)C(F)(F)F)cc2cc(Br)cnc12` [Example 778], the results for the EC50 in experiment [1] (setting [3]) and in experiment [2] were less than 200 nM and less than 500 nM, respectively.

For `COc1cc(C(=O)NC[C@](O)(c2cc3c(c(-c4ccccc4-c4ccccc4)n2)OC[C@]3(C)C(N)=O)C(F)(F)F)cc2cn(C3CC3)nc12` [Example 1250], the values for the EC50 in experiment [1] (setting [4]) and in experiment [2] were less than 200 nM and more than 500 nM, respectively.

For the molecule `COc1cc(C(=O)NC[C@](O)(c2cc3c(c(-c4ccc(F)c(Cl)c4)n2)OC[C@@]3(CF)C(N)=O)C(F)(F)F)cc2cc(Cl)c(C)nc12` [Example 1046], the EC50 in experiment [1] (setting [4]) was more than 200 nM; in experiment [2], more than 500 nM.

Consider `COc1cc(C(=O)NC[C@](O)(c2cc3c(c(-c4csc5ccc(F)cc45)n2)OC[C@]3(C)C(N)=O)C(F)(F)F)cc2cn(C3CC3)nc12` [Example 944], for which the figures for the EC50 in experiment [1] (setting [4]) and in experiment [2] were less than 200 nM and more than 500 nM, respectively.

With `Cc1cnc2c(OC(F)F)cc(C(=O)NC[C@](O)(c3cc4c(c(-c5ccc(F)cc5)n3)OC[C@]4(C(N)=O)C(F)F)C3CC3)cc2c1` [Example 1026], the EC50 is more than 200 nM in experiment [1] (setting [4]) and more than 500 nM in experiment [2].

As to `COc1cc(C(=O)NC[C@](O)(c2cc3c(c(-c4cc(Br)c(F)cc4F)n2)OC[C@]3(C)C(N)=O)C2CC2)cc2cn(C3(F)CC3)nc12` [Example 1089], the figures for the EC50 in experiment [1] (setting [4]) and in experiment [2] were less than 200 nM and less than 500 nM, respectively.

Consider `COc1cc(C(=O)NC[C@@](O)(c2cc3c(c(-c4c(F)cc(F)cc4Cl)n2)OC[C@]3(C)C(N)=O)C(F)(F)F)cc2cn(C3CC3)nc12` [Example 1234], for which the EC50 was more than 200 nM in experiment [1] (setting [4]) and more than 500 nM in experiment [2].

With `COc1cc(C(=O)NC[C@](O)(c2cc3c(c(-c4ccc(F)cc4)n2)OC[C@]3(C)C(N)=O)C(F)(F)F)cc2c(F)n(C3CC3)nc12` [Example 649], the values for the EC50 in experiment [1] (setting [3]) and in experiment [2] were less than 200 nM and more than 500 nM, respectively.

Consider `COc1cc(C(=O)NCC(O)(c2cc3c(c(-c4cnc(C(F)(F)F)nc4)n2)OC[C@]3(C)C(N)=O)C(F)(F)F)cc2cn(C3CC3)nc12` (some centres unmarked) [Example 899], for which the EC50 in experiment [1] (setting [4]) is more than 200 nM; in experiment [2] it was more than 500 nM.

As to `COc1cc(C(=O)NC[C@](O)(c2cc3c(c(-c4ccc(OC(F)F)c(F)c4)n2)OC[C@]3(C)C(N)=O)C(F)(F)F)cc2cn(C3CC3)nc12` [Example 920], the EC50 in experiment [1] (setting [4]) was less than 200 nM; in experiment [2] it was less than 500 nM.

As to `C[C@]1(C(N)=O)COc2c1cc([C@@](O)(CNC(=O)c1cc(OCC(F)F)c3nn(C4(F)CC4)cc3c1)C(F)(F)F)nc2-c1ccc(F)cc1` [Example 889], the values for the EC50 in experiment [1] (setting [4]) and in experiment [2] were less than 200 nM and more than 500 nM, respectively.

For the molecule `COc1cc(C(=O)NC[C@](O)(c2cc3c(c(-c4ccc(F)cc4)n2)OC[C@]3(C)C(N)=O)C(F)(F)F)n2ccnc2c1` [Example 691], the figures for the EC50 in experiment [1] (setting [3]) and in experiment [2] were less than 200 nM and more than 500 nM, respectively.

`C[C@]1(C(N)=O)COc2c1cc([C@@](O)(CNC(=O)c1cc(OC3CC3)c3nn(C(F)F)cc3c1)C(F)(F)F)nc2-c1ccc2c(c1)OC(F)(F)O2` [Example 569]: the EC50 in experiment [1] (setting [3]) is less than 200 nM; in experiment [2], less than 500 nM.

Take `C[C@]1(C(N)=O)COc2c1cc([C@@](O)(CNC(=O)c1cc(OCC3CC3)c3nn(C4(F)CC4)cc3c1)C(F)(F)F)nc2-c1csc2c(F)cccc12` [Example 610]: the EC50 in experiment [1] (setting [3]) is less than 200 nM; in experiment [2], less than 500 nM.

Turning to `Cc1cnc2c(Cl)cc(C(=O)NC[C@](O)(c3cc4c(c(-c5cc(Cl)c(F)c(Cl)c5)n3)OC[C@]4(C)C(N)=O)C(F)(F)F)cc2c1` [Example 675], the EC50 in experiment [1] (setting [3]) is less than 200 nM; in experiment [2], more than 500 nM.

For `COc1cc(C(=O)NC[C@](O)(c2nc(-c3ccc(F)c(Cl)c3F)c3c(c2F)[C@@](C)(C(N)=O)CO3)C2CC2)cc2cn(C3CC3)nc12` [Example 1160], the values for the EC50 in experiment [1] (setting [4]) and in experiment [2] were less than 200 nM and less than 500 nM, respectively.

As for `Cc1cnc2c(OC(F)F)cc(C(=O)NC[C@](O)(c3cc4c(c(-c5ccc(F)cc5)n3)OC[C@]4(C)C(N)=O)C3(F)CC3)cc2c1` [Example 710], the EC50 in experiment [1] (setting [3]) was less than 200 nM; in experiment [2], less than 500 nM.

In the case of `COc1cc(C(=O)NC[C@](O)(c2nc(-c3ccc(F)cc3)c3c(c2F)[C@@](C)(C(N)=O)CO3)C(F)(F)F)cc2cn(C3CC3)nc12` [Example 851], the EC50 in experiment [1] (setting [4]) is less than 200 nM; in experiment [2] it was less than 500 nM.

For `Cc1cnc2c(Cl)cc(C(=O)NC[C@](O)(c3cc4c(c(-c5ccc(F)c(C(F)(F)F)c5)n3)OC[C@]4(C)C(N)=O)C3CC3)cc2c1` [Example 1102], the EC50 is less than 200 nM in experiment [1] (setting [4]) and less than 500 nM in experiment [2].

With `COc1cc(C(=O)NC[C@](O)(c2cc3c(c(-c4ccc(F)c(Cl)c4)n2)OC[C@]3(C)C(N)=O)C2CC2)cc2cn(C(F)F)nc12` [Example 574], the EC50 in experiment [1] (setting [3]) was less than 200 nM; in experiment [2] it was less than 500 nM.

Turning to `COc1ccc(C(=O)NC[C@](O)(c2cc3c(c(-c4ccc(F)cc4)n2)OC[C@]3(C)C(N)=O)C(F)(F)F)cc1NC(=O)NC1CC1` [Example 625], the EC50 in experiment [1] (setting [3]) is less than 200 nM; in experiment [2], more than 500 nM.

Regarding `C[C@]1(C(N)=O)COc2c1cc([C@@](O)(CNC(=O)c1cc(F)c3nn(C4CC4)cc3c1)C(F)(F)F)nc2-c1ccc2c(c1)OC(F)(F)O2` [Example 544], the values for the EC50 in experiment [1] (setting [3]) and in experiment [2] were less than 200 nM and less than 500 nM, respectively.

Regarding `COc1cc(C(=O)NC[C@](O)(c2cc3c(c(-c4ccc(F)cc4)n2)OC[C@]3(C)C(N)=O)C2CCC2)cc2cn(C3CC3)nc12` [Example 708], the EC50 is less than 200 nM in experiment [1] (setting [3]) and less than 500 nM in experiment [2].

`COc1cc(C(=O)NC[C@](O)(c2cc3c(c(-c4cc(Cl)c(F)cc4F)n2)OC[C@]3(C)C(N)=O)C(F)(F)F)cc2cc(Br)cnc12` [Example 621]: the results for the EC50 in experiment [1] (setting [3]) and in experiment [2] were less than 200 nM and less than 500 nM, respectively.

For the molecule `Cc1cnc2c(Cl)cc(C(=O)NC[C@](O)(c3cc4c(c(-c5ccc6c(c5)OC(F)(F)O6)n3)OC[C@]4(C)C(N)=O)C3CC3)cc2c1` [Example 539], the EC50 was less than 200 nM in experiment [1] (setting [3]) and less than 500 nM in experiment [2].

On to `COc1cc(C(=O)NC[C@](O)(c2cc3c(c(-c4ccc(F)c(C(F)(F)F)c4)n2)OC[C@]3(C)C(N)=O)C2(F)CC2)cc2cn(C(F)F)nc12` [Example 751], for which the EC50 in experiment [1] (setting [3]) is less than 200 nM; in experiment [2], less than 500 nM.

The record behind these values is patent publication US12612412B2, “Antiviral heterocyclic compounds” (Enanta Pharmaceuticals, Inc., priority 2021, dated 2026).
